From US8093231B2, “Sulfonylethyl phosphorodiamidates” (Telik, Inc., priority 2004, dated 2012)

What was measured:
Type in all cases: cell-based, human
MX-1 (breast carcinoma) = assay: Cytotoxicity/growth inhibition assay, MX-1; conditions: MX-1 cells, 3 days culture, CellTiter-Glo, 0.1-200 μM tested; read-out: IC50 (MX-1)
Method in brief: (§1)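 Test compounds in DMSO (0.1–200 μM; final DMSO 0.5%) added to freshly diluted cells (3×10^3 cells/mL MX-1 and DLD-1, 6×10^3 cells/mL LNCap), triplicate wells. Cultured ~three doubling times (3 days MX-1, 4 days DLD-1/LNCap). CellTiter-Glo luminescence, 15 min room temperature; growth expressed as % of DMSO solvent control.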

[1] = tested on: DLD-1 (colorectal adenocarcinoma); assay: Cytotoxicity/growth inhibition assay, DLD-1; conditions: DLD-1 cells, 4 days culture, CellTiter-Glo, 0.1-200 μM tested; read-out: IC50 (DLD-1)
Method in brief: as §1

[2] = tested on: LNCap (prostate carcinoma); assay: Cytotoxicity/growth inhibition assay, LNCap; conditions: LNCap cells, 4 days culture, CellTiter-Glo, 0.1-200 μM tested; read-out: IC50 (LNCap)
Method in brief: as §1

Structure (SMILES)	IC50 (MX-1 (breast carcinoma))	IC50 [1]	IC50 [2]
O=P(OCCS(=O)(=O)c1ccccc1)(N(CCCl)CCCl)N(CCCl)CCCl [Compound 117A]	4.1 µM	4 µM	16.3 µM
O=C(O)c1ccccc1S(=O)(=O)CCOP(=O)(N(CCCl)CCCl)N(CCCl)CCCl [Compound 118A]	37.2 µM	10.9 µM	≥ 200 µM
O=C(O)c1cccc(S(=O)(=O)CCOP(=O)(N(CCCl)CCCl)N(CCCl)CCCl)c1 [Compound 119A]	32.5 µM	9.8 µM	189 µM
O=P(OCCS(=O)(=O)c1ccncc1)(N(CCCl)CCCl)N(CCCl)CCCl [Compound 120A]	7.1 µM	3.6 µM	12.2 µM
O=P(OCCS(=O)(=O)c1nc2ccccc2s1)(N(CCCl)CCCl)N(CCCl)CCCl [Compound 121A]	2.6 µM	1.2 µM	8.5 µM
Cn1ccnc1S(=O)(=O)CCOP(=O)(N(CCCl)CCCl)N(CCCl)CCCl [Compound 122A]	4.3 µM	3.1 µM	23 µM
Cc1cnc(S(=O)(=O)CCOP(=O)(N(CCCl)CCCl)N(CCCl)CCCl)nc1 [Compound 123A]	9 µM	5.9 µM	25.1 µM
O=P(OCCS(=O)(=O)c1ccccn1)(N(CCCl)CCCl)N(CCCl)CCCl [Compound 124A]	7.2 µM	6 µM	15.5 µM
O=P(OCCS(=O)(=O)c1ncnc2[nH]cnc12)(N(CCCl)CCCl)N(CCCl)CCCl [Compound 125A]	22.5 µM	7.8 µM	45.1 µM
O=C(O)c1ncccc1S(=O)(=O)CCOP(=O)(N(CCCl)CCCl)N(CCCl)CCCl [Compound 126A]	20.3 µM	6.7 µM	126 µM
O=P(OCCS(=O)(=O)c1ncc2nc[nH]c2n1)(N(CCCl)CCCl)N(CCCl)CCCl [Compound 127A]	15.2 µM	5.8 µM	≥ 200 µM
Cc1cccc(CS(=O)(=O)CCOP(=O)(N(CCCl)CCCl)N(CCCl)CCCl)c1 [Compound 129A]	7.1 µM	5.4 µM	16.3 µM
Cc1ccc(CS(=O)(=O)CCOP(=O)(N(CCCl)CCCl)N(CCCl)CCCl)cc1 [Compound 130A]	6.5 µM	5.1 µM	22 µM
O=P(OCCS(=O)(=O)Cc1ccc(Cl)cc1)(N(CCCl)CCCl)N(CCCl)CCCl [Compound 131A]	5.2 µM	3.6 µM	6.9 µM
O=P(OCCS(=O)(=O)Cc1ccc(F)cc1)(N(CCCl)CCCl)N(CCCl)CCCl [Compound 132A]	6.1 µM	5 µM	16.3 µM
O=P(OCCS(=O)(=O)Cc1cccc(C(F)(F)F)c1)(N(CCCl)CCCl)N(CCCl)CCCl [Compound 133A]	2.7 µM	2.6 µM	8.2 µM
O=P(OCCS(=O)(=O)Cc1ccc(Cl)c(Cl)c1)(N(CCCl)CCCl)N(CCCl)CCCl [Compound 134A]	1.5 µM	1.2 µM	4.8 µM
O=P(OCCS(=O)(=O)Cc1ccc(Cl)cc1Cl)(N(CCCl)CCCl)N(CCCl)CCCl [Compound 135A]	3.5 µM	0.6 µM	19.1 µM
O=P(OCCS(=O)(=O)Cc1ccccc1Cl)(N(CCCl)CCCl)N(CCCl)CCCl [Compound 136A]	2.8 µM	1.7 µM	21.4 µM
CC(C)(C)c1ccc(CS(=O)(=O)CCOP(=O)(N(CCCl)CCCl)N(CCCl)CCCl)cc1 [Compound 137A]	1.7 µM	0.8 µM	22.3 µM

Structure (SMILES)	IC50 (MX-1 (breast carcinoma))	IC50 [1]	IC50 [2]
O=[N+]([O-])c1cccc(CS(=O)(=O)CCOP(=O)(N(CCCl)CCCl)N(CCCl)CCCl)c1 [Compound 138A]	16.8 µM	1.8 µM	12 µM
O=C(O)c1ccc(CS(=O)(=O)CCOP(=O)(N(CCCl)CCCl)N(CCCl)CCCl)cc1 [Compound 139A]	25.3 µM	9.3 µM	82.1 µM
COC(=O)c1ccc(CS(=O)(=O)CCOP(=O)(N(CCCl)CCCl)N(CCCl)CCCl)cc1 [Compound 140A]	11.9 µM	5.9 µM	23.3 µM
Nc1cccc(CS(=O)(=O)CCOP(=O)(N(CCCl)CCCl)N(CCCl)CCCl)c1 [Compound 141A]	17.3 µM	12.9 µM	45.9 µM
O=C(O)CCC(=O)Nc1cccc(CS(=O)(=O)CCOP(=O)(N(CCCl)CCCl)N(CCCl)CCCl)c1 [Compound 142A]	22.5 µM	18.1 µM	114 µM
NCC(=O)Nc1cccc(CS(=O)(=O)CCOP(=O)(N(CCCl)CCCl)N(CCCl)CCCl)c1 [Compound 143A]	15.9 µM	10.9 µM	110 µM
CC(C)(C)OC(=O)NCC(=O)Nc1cccc(CS(=O)(=O)CCOP(=O)(N(CCCl)CCCl)N(CCCl)CCCl)c1 [Compound 144A]	5.7 µM	4 µM	17.9 µM
N[C@@H](CCC(=O)Nc1cccc(CS(=O)(=O)CCOP(=O)(N(CCCl)CCCl)N(CCCl)CCCl)c1)C(=O)O [Compound 147A]	12.2 µM	11.1 µM	63.9 µM
N#Cc1ccc(CS(=O)(=O)CCOP(=O)(N(CCCl)CCCl)N(CCCl)CCCl)cc1 [Compound 153A]	3 µM	1.8 µM	6.9 µM
O=C(c1ccc(CS(=O)(=O)CCOP(=O)(N(CCCl)CCCl)N(CCCl)CCCl)cc1)N1CCOCC1 [Compound 154A]	5.5 µM	5.8 µM	26.2 µM
CN(C)C(=O)c1ccc(CS(=O)(=O)CCOP(=O)(N(CCCl)CCCl)N(CCCl)CCCl)cc1 [Compound 155A]	2.6 µM	10.7 µM	42.4 µM
O=C(c1ccc(CS(=O)(=O)CCOP(=O)(N(CCCl)CCCl)N(CCCl)CCCl)cc1)N1CCCC1 [Compound 156A]	4.8 µM	3.5 µM	31.4 µM
CCN(CC)C(=O)c1ccc(CS(=O)(=O)CCOP(=O)(N(CCCl)CCCl)N(CCCl)CCCl)cc1 [Compound 157A]	3.1 µM	2.3 µM	29.6 µM
CN(CCO)C(=O)c1ccc(CS(=O)(=O)CCOP(=O)(N(CCCl)CCCl)N(CCCl)CCCl)cc1 [Compound 158A]	35.4 µM	17.5 µM	85.2 µM
O=C(c1ccc(CS(=O)(=O)CCOP(=O)(N(CCCl)CCCl)N(CCCl)CCCl)cc1)N1CCCCC1 [Compound 159A]	5.3 µM	3.5 µM	24.4 µM
O=C(NCCO)c1ccc(CS(=O)(=O)CCOP(=O)(N(CCCl)CCCl)N(CCCl)CCCl)cc1 [Compound 160A]	33.2 µM	13.9 µM	104 µM
O=C(NCc1ccccc1)c1ccc(CS(=O)(=O)CCOP(=O)(N(CCCl)CCCl)N(CCCl)CCCl)cc1 [Compound 161A]	7.4 µM	3.7 µM	11.7 µM
NC(=O)c1ccc(CS(=O)(=O)CCOP(=O)(N(CCCl)CCCl)N(CCCl)CCCl)cc1 [Compound 162A]	7.1 µM	4.7 µM	55.1 µM
CCNC(=O)c1ccc(CS(=O)(=O)CCOP(=O)(N(CCCl)CCCl)N(CCCl)CCCl)cc1 [Compound 163A]	4.8 µM	4.8 µM	28.5 µM
